Where “and” joins values, the source holds several entries; their conditions need not be identical. Equal values may be shown once.
Assays:
[1] = biological target: T1, AmpC β-lactamase (Pseudomonas aeruginosa, UniProt P24735); experiment: Enzyme inhibition assay (spectrophotometric, cephalothin reporter substrate); type: biochemical, P. aeruginosa; conditions: mean of two replicates, five inhibitor concentrations, Dixon plot, 100 μM cephalothin, pH 7.5, 25 °C
T1 construct: made in house; host or cells: E. coli BL21(DE3), plasmid pET-9aAmpC
Experimental: (§1) To obtain a well-characterized inhibition profile for each selected boronic acids against each BLs in the panel, the compounds were tested for inhibitory activity. The protein panel included clinically- and epidemiologically-relevant β-lactamases, representatives of each structural class (A to D), as mentioned above. Each BL was overexpressed in E. coli, purified by chromatography and characterized as already reported. (SI, Table S1)[40]–[45].
(§2) Reactions were initiated with addition of BL enzyme (the concentration values for each BL enzyme into the SI, Table S1 have been reported).
(§3) From the resulting inhibition percentages at each different inhibitor concentration and, assuming a competitive inhibition for the boronic compounds panel, it was possible to calculate the IC50 values from the Dixon plot 1/V vs [I], using the equation IC50 = […][61], where v0 is the rate of hydrolysis of the reporter substrate (v0 being the rate measured in the absence of inhibitor), q the y axis intercept and m the slope of the resulting linear regression.

[2] = biological target: T2, CTX-M-15 (Escherichia coli, UniProt Q9EXV5); experiment: as above; type: biochemical; conditions: IC50 CTX-M-15, mean of two replicates, five inhibitor concentrations, Dixon plot; pH 7.5, 25 °C
T2 construct: made in house; host or cells: E. coli BL21(DE3), pET-9a derivative (pET-CTX-M-15)
Experimental: as §1, §2, §3

[3] = biological target: T3, OXA-24 (Acinetobacter baumannii, UniProt Q8RLA6); experiment: as above; type: biochemical
T3 construct: GST (N, cleaved yes); made in house; host or cells: E. coli DH5α, pGEX-2T-OXA-24
Experimental: as §1, §2, §3

[4] = biological target: T4, KPC-2 (Klebsiella pneumoniae, UniProt Q9F663); experiment: as above; type: biochemical; conditions: mean of two replicates, five inhibitor concentrations, Dixon plot; pH 7.5, 25 °C
T4 construct: made in house; host or cells: E. coli BL21(DE3), pET9-KPC2
Experimental: as §1, §2

[5] = test system: E. coli clinical isolate, overproduction chromosomal AmpC; experiment: Susceptibility testing (MIC), synergy with ceftazidime; type: cell-based; conditions: antibiotic:inhibitor 1:1 (w/w)
Experimental: (§4) The minimum inhibitory concentrations (MICs), for CAZ and CTX alone and in combination with boronic acids against resistant strains were determined (Table 2a,b).
(§5) Susceptibility testing was performed in Mueller Hinton broth and interpreted following the guidelines of the National Committee for Clinical Laboratory Standards[70]. To test the inhibitory activity, the compounds were dissolved in DMSO, 50% in water, and further dilutions were performed using growth medium. In all cases tests were performed at a final DMSO concentration below 5%, avoiding unwanted DMSO inhibition effect on strains growth (blank test control with DMSO were performed). The MICs of cefotaxime and ceftazidime alone and in association were determined against several relevant Gram-negative clinical isolates, selected from the pathogen collection of the Spanish Network for Research in Infectious Pathology (REIPI; Spain). The selection was based on strains capability of producing β-lactamases of interest for the present study. The antibiotic:inhibitor ratio was 1:1 (w/w).

[6] = test system: E. coli clinical isolate, plasmidic AmpC - DHA1; experiment: as above; type: cell-based; conditions: for MIC of ceftazidime (CAZ) in combination with compound: E. coli, plasmidic AmpC - DHA1, antibiotic:inhibitor 1:1 (w/w)
Experimental: as §4, §5

[7] = test system: P. aeruginosa 12, overproduction chromosomal AmpC; experiment: as above; type: cell-based; conditions: antibiotic:inhibitor 1:1 (w/w)
Experimental: as §4, §5

[8] = test system: P. aeruginosa 120, overproduction chromosomal AmpC; experiment: as above; type: cell-based; conditions: antibiotic:inhibitor 1:1 (w/w)
Experimental: as §4, §5

[9] = test system: P. aeruginosa 148, overproduction chromosomal AmpC; experiment: as above; type: cell-based; conditions: antibiotic:inhibitor 1:1 (w/w)
Experimental: as §4, §5

[10] = test system: P. aeruginosa 199, overproduction chromosomal AmpC; experiment: as above; type: cell-based; conditions: antibiotic:inhibitor 1:1 (w/w)
Experimental: as §4, §5

[11] = test system: P. aeruginosa 49, overproduction chromosomal AmpC; experiment: as above; type: cell-based; conditions: antibiotic:inhibitor 1:1 (w/w)
Experimental: as §4, §5

[12] = test system: CTX-M-15 E. coli clinical isolate; experiment: Susceptibility testing (MIC), synergy with cefotaxime; type: cell-based; conditions: for MIC of cefotaxime (CTX) in combination with compound: CTX-M-15 E. coli, antibiotic:inhibitor 1:1 (w/w)
Experimental: as §4, §5

[13] = test system: KPC-2 K. pneumoniae clinical isolate; experiment: as above; type: cell-based; conditions: for MIC of cefotaxime (CTX) in combination with compound: KPC-2 K. pneumoniae, antibiotic:inhibitor 1:1 (w/w)
Experimental: as §4, §5

[14] = test system: NDM-1 E. coli clinical isolate; experiment: as above; type: cell-based; conditions: antibiotic:inhibitor 1:1 (w/w)
Experimental: as §4, §5

[15] = test system: OXA-24 A. baumanii clinical isolate; experiment: as above; type: cell-based; conditions: antibiotic:inhibitor 1:1 (w/w)
Experimental: as §4, §5

[16] = test system: VIM-2 P. aeruginosa clinical isolate; experiment: as above; type: cell-based; conditions: antibiotic:inhibitor 1:1 (w/w)
Experimental: as §4, §5

[17] = biological target: VIM-2 (Escherichia coli, UniProt Q5U7L7); experiment: Enzyme inhibition assay (spectrophotometric, cephalothin reporter substrate); type: biochemical; parameters: made in house; host or cells: E. coli BL21(DE3), pET9-VIM-2; conditions: mean of two replicates, five inhibitor concentrations, Dixon plot; pH 7.5, 25 °C
Experimental: as §1, §2

[18] = biological target: NDM-1 (Klebsiella pneumoniae, UniProt C7C422); experiment: as above; type: biochemical; parameters: His-tag; made in house; host or cells: E. coli BL21(DE3), pET-15-NDM-1; conditions: mean of two replicates, five inhibitor concentrations, Dixon plot; pH 7.5, 25 °C
Experimental: as §1, §2

[19] = test system: CC(=O)OCC1=C(C(=O)O)N2C(=O)[C@@H](NC(=O)Cc3cccs3)[C@H]2SC1; experiment: purified protein, by the assay type; conditions: 37.0 °C
[20] = test system: E. aerogenes clinical isolate, overproduction chromosomal AmpC; experiment: Susceptibility testing (MIC), synergy with ceftazidime; type: cell-based; conditions: antibiotic:inhibitor 1:1 (w/w)
Experimental: as §4, §5

[21] = test system: E. cloacae clinical isolate, overproduction chromosomal AmpC; experiment: as above; type: cell-based; conditions: for MIC of ceftazidime (CAZ) in combination with compound: overproduction chromosomal AmpC, antibiotic:inhibitor 1:1 (w/w)
Experimental: as §4, §5

[22] = other: β-lactam substrate of AmpC, enzyme 0.019 µM
[23] = other: β-lactam substrate of CTX-M-15, enzyme 0.067 µM
[24] = other: β-lactam substrate of OXA-24, enzyme 0.035 µM

T1 sequence (P24735 27-397): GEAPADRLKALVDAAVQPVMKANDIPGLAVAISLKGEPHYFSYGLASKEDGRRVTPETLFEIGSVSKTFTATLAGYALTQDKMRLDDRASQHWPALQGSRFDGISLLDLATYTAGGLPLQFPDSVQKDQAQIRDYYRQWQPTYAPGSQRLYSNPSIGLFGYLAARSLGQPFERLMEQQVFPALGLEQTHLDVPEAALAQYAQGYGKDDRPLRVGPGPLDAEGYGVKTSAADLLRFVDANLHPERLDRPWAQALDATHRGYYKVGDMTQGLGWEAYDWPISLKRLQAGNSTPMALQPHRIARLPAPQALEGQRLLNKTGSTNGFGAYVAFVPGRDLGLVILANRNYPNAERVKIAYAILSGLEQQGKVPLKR
T4 sequence (Q9F663 25-293 limits assumed): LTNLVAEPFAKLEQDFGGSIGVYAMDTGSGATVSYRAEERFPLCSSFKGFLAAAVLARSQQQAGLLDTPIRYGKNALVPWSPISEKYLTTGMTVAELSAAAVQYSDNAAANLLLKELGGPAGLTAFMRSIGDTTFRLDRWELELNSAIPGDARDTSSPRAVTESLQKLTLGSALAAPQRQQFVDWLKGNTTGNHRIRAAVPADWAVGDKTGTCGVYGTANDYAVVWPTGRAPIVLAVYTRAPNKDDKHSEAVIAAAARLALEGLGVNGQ
Sequence of NDM-1 (C7C422 29-270 limits assumed): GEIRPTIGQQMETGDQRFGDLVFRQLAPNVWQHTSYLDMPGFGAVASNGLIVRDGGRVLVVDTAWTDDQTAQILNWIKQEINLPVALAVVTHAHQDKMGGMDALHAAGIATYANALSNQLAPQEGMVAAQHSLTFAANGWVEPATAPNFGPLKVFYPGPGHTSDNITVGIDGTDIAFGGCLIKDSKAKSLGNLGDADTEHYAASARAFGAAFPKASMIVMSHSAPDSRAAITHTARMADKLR
T3 sequence (Q8RLA6 22-275 limits assumed): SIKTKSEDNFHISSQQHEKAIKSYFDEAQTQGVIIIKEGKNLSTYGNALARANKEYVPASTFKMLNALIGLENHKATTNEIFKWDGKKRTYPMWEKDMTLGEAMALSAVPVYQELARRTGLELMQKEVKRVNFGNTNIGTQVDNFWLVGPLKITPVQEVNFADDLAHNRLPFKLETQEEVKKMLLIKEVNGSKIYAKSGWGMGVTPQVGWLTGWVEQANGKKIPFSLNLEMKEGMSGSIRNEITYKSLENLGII
T2 sequence (Q9EXV5 entry or part of it): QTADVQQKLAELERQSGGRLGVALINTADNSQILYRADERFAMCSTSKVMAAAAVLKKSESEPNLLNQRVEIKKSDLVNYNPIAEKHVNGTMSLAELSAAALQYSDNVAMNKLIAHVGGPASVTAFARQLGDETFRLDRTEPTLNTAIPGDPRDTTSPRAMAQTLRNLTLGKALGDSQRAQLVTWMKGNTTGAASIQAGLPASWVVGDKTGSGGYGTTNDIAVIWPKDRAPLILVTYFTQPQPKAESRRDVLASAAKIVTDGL

Row | Compound | IC50 [1] | IC50 [2] | IC50 [3] | IC50 [4] | MIC of ceftazidime (CAZ) in combination with compound [5] | MIC of ceftazidime (CAZ) in combination with compound [6] | MIC of ceftazidime (CAZ) in combination with compound [7] | MIC of ceftazidime (CAZ) in combination with compound [8] | MIC of ceftazidime (CAZ) in combination with compound [9] | MIC of ceftazidime (CAZ) in combination with compound [10] | MIC of ceftazidime (CAZ) in combination with compound [11] | MIC of cefotaxime (CTX) in combination with compound [12] | MIC of cefotaxime (CTX) in combination with compound [13] | MIC of cefotaxime (CTX) in combination with compound [14] | MIC of cefotaxime (CTX) in combination with compound [15] | MIC of cefotaxime (CTX) in combination with compound [16] | IC50 [17] | IC50 [18] | MIC of ceftazidime (CAZ) in combination with compound [20] | MIC of ceftazidime (CAZ) in combination with compound [21] | other results
1 | CC(C)(C)OC(=O)c1cccc2cc(B3OC(C)(C)C(C)(C)O3)sc12 [Compound 4] | 3.88 µM and 3.9 µM | 4.49 µM and 4.5 µM | 38 ± 7.64 µM | 8.22 µM and 5.4 µM | 512 µg/mL | 512 µg/mL | 32 µg/mL | 4 µg/mL | 32 µg/mL | 64 µg/mL | 64 µg/mL | 64 µg/mL | 4 µg/mL | 1024 µg/mL | 64 µg/mL | 1024 µg/mL | 20.2 ± 0.07 µM | 35.7 ± 7.46 µM |  |  | 
2 | AmpC (Pseudomonas aeruginosa PAO1) |  |  |  |  |  |  |  |  |  |  |  |  |  |  |  |  |  |  |  |  | Km [19, 22]: 33 ± 2 µM; kcat [19, 22]: 159 ± 32 s⁻¹; kcat/Km [19, 22]: 4.82e+06 M⁻¹ s⁻¹
3 | Cc1ccc2sc(B3OC(C)(C)C(C)(C)O3)cc2c1 [Compound 1] | 0.4 ± 0.08 µM | 6.4 ± 1.52 µM | 113 ± 14.6 µM | 5.9 ± 1.64 µM | 16 µg/mL | 64 µg/mL | 4 µg/mL | 4 µg/mL | 8 µg/mL | 16 µg/mL | 4 µg/mL | 64 µg/mL | 4 µg/mL | 1024 µg/mL | 64 µg/mL | 1024 µg/mL | 72 ± 14.7 µM | 68.4 ± 14 µM | 4 µg/mL | 64 µg/mL | MIC decrease of CAZ (fold) / synergy ([21]; CAZ combination): 4 fold; MIC reduction of CAZ (fold) ([6]; DHA-1-producing E. coli strain, CAZ combination): 8 fold; MIC reduction of CTX (fold) ([13]; K. pneumoniae producing KPC-2, CTX combination): 32 fold
4 | CTX-M-15 (Escherichia coli) |  |  |  |  |  |  |  |  |  |  |  |  |  |  |  |  |  |  |  |  | Km [19, 23]: 41 ± 3 µM; kcat [19, 23]: 35 ± 7 s⁻¹; kcat/Km [19, 23]: 850000 M⁻¹ s⁻¹
5 | CC(C)(C)OC(=O)Nc1cccc2cc(B(O)O)sc12 [Compound 6] | 4.4 ± 0.83 µM | 9.8 ± 3.34 µM | 88 ± 14 µM | 2.25 µM and 2.3 µM | 64 µg/mL | 512 µg/mL | 64 µg/mL | 4 µg/mL | 64 µg/mL | 64 µg/mL | 64 µg/mL | 16 µg/mL | 4 µg/mL | 64 µg/mL | 16 µg/mL |  | 103 ± 14.2 µM | 117 ± 9.72 µM |  | 64 µg/mL | 
6 | CC1(C)OB(c2cc3cc(CBr)ccc3s2)OC1(C)C [Compound 2] | 0.2 ± 0.04 µM | 8.3 ± 1.09 µM | 93 ± 18.4 µM | 4.7 ± 2.04 µM | 16 µg/mL | 32 µg/mL | 4 µg/mL | 2 µg/mL | 8 µg/mL | 16 µg/mL | 4 µg/mL | 64 µg/mL | 4 µg/mL | 1024 µg/mL | 64 µg/mL |  | 83.5 ± 3.35 µM | 64.6 ± 7.88 µM | 4 µg/mL |  | 
7 | NCc1ccc2sc(B(O)O)cc2c1 [Compound 3] | 0.16 ± 0.06 µM | 5.2 ± 1.42 µM | 132 ± 20.9 µM | 7.3 ± 1.82 µM | 16 µg/mL | 512 µg/mL | 64 µg/mL | 4 µg/mL | 4 µg/mL | 64 µg/mL | 64 µg/mL | 64 µg/mL | 4 µg/mL | 32 µg/mL | 64 µg/mL | 8 µg/mL | 26.9 ± 7.07 µM | 60.7 ± 11.8 µM |  | 64 µg/mL | 
8 | OXA-24 (Acinetobacter baumannii) |  |  |  |  |  |  |  |  |  |  |  |  |  |  |  |  |  |  |  |  | Km [19, 24]: 20 ± 2 µM; kcat [19, 24]: 1000 ± 150 s⁻¹; kcat/Km [19, 24]: 5e+07 M⁻¹ s⁻¹
9 | CC1(C)OB(c2cc3cccc(C(=O)O)c3s2)OC1(C)C [Compound 5] | 1.3 ± 0.01 µM | 9.4 ± 3.48 µM | 23 ± 4.38 µM | 5.38 µM and 8.2 µM | 64 µg/mL | 512 µg/mL | 16 µg/mL | 4 µg/mL | 32 µg/mL | 16 µg/mL | 32 µg/mL | 16 µg/mL | 4 µg/mL | 1024 µg/mL | 16 µg/mL | 1024 µg/mL | 27.7 ± 3.65 µM | 32.4 ± 7.14 µM | 32 µg/mL | 64 µg/mL | MIC reduction of CTX (fold) ([12]; E. coli producing CTX-M-15, CTX combination): 4 fold

Source: publication PMC5735191, “Computational and biological profile of boronic acids for the detection of bacterial serine- and metallo-β-lactamases” (Scientific Reports, 2017)
